Values quoted from earlier work in US7255813B2, “NADH/NADPH-containing compound” (Nutropia Ernahrungsmedizinische Forschungs GmbH, priority 2002, dated 2007).

Settings: versus synthetic tocopherols

## tocotrienol
  antioxidative potential, times higher than that of synthetic tocopherols: 50 to 1000 times
